Source: ChEMBL document CHEMBL3507680, “University of Dundee, Gates Library screen for HepG2 cell viability”

Test: Human HepG2 cell viability assay in 384 well format
Format: toxicity, cell-based
Parameters: dose 125 nL, time 70.5 hour; concentration not given beside the values
Details: HepG2 cells, read-out: Inhibition
Compound O=C(C[S+]([O-])Cc1ccc(F)cc1)N1CCc2sccc2C1 (configuration not stated) has a cytotoxicity at 70.5 h of -9.59%.
Cc1cccc(CN2CCCC(O)(CNCCc3c[nH]cn3)C2=O)c1 (configuration not stated) gave a cytotoxicity at 70.5 h of 9.08%.
Compound CC(C)(C)CCN1CCC(c2nnc(Cn3cccn3)n2C2CC2)CC1 has a cytotoxicity at 70.5 h of -9.38%.
With COc1cc(C2SCC(=O)Nc3ccsc32)cc(OC)c1OC (configuration not stated) the cytotoxicity at 70.5 h was -14.5%.
In the case of CCN1CCN(C(C)CNC(=O)Nc2nnc(C)s2)CC1 (configuration not stated), the cytotoxicity at 70.5 h is reported as -10.5%.
Cc1ccc(CN2CC[C@H]3[C@H]2CCN3S(=O)(=O)C2CC2)s1 showed a cytotoxicity at 70.5 h of -5.12%.
CCc1cc(NC2CCN(CC(N)=O)CC2)nc(N2CCCCC2)n1 showed a cytotoxicity at 70.5 h of -2.44%.
Compound CNC(=O)[C@@H]1C[C@H](N)CN1S(=O)(=O)c1cc(C)c(Cl)cc1C has a cytotoxicity at 70.5 h of 1.05%.
With O=C(c1ccc2c(c1)OCO2)N1CCC[C@]2(C[C@H](OCC3CC3)CO2)C1 the cytotoxicity at 70.5 h was -9.71%.
In the case of CCCc1noc(CN2CCOCC2C)n1 (configuration not stated), the cytotoxicity at 70.5 h is reported as 20.1%.
NC(=O)c1cc(C2CCCN(CCCOc3ccccc3)C2)n[nH]1 (configuration not stated) gave a cytotoxicity at 70.5 h of -10.9%.
For Cc1cc(C)c(C(=O)N2CCCC(C(=O)CCc3ccccc3)C2)cn1 (configuration not stated), the cytotoxicity at 70.5 h was -3.58%.
In the case of Cc1nc(C)c(C(=O)N2CCc3c(C)cccc32)o1, the cytotoxicity at 70.5 h is reported as -5.23%.
CS(=O)(=O)N1CCCn2nc(CNc3cc(C#N)ccn3)cc2C1 showed a cytotoxicity at 70.5 h of -6.16%.
In the case of CC(C)Cc1ncc2c(n1)CN(c1cc(N3CCCC3)nc(N)n1)C2, the cytotoxicity at 70.5 h is reported as 1.59%.
In the case of O=C(O)c1c(-c2cccnc2)ncc2c1CCN(CC1CCOC1)C2 (configuration not stated), the cytotoxicity at 70.5 h is reported as 16.6%.
Cc1nc(CC(C)C)sc1C(=O)N1CCC1 gave a cytotoxicity at 70.5 h of -2.02%.
Compound COCCCNC(=O)c1cc(-c2ccc(OC)cc2)nn1C has a cytotoxicity at 70.5 h of 4.27%.
Compound CCCC1C=CCN1C(=O)c1cc(COc2ccccc2)[nH]n1 (configuration not stated) has a cytotoxicity at 70.5 h of -6.23%.
CC(C)N1CCC2(CC1)C(=O)N(c1cccnc1)c1c(F)cccc12 gave a cytotoxicity at 70.5 h of -2.98%.
In the case of CCCc1n[nH]c(C2CN(C(=O)c3ccnc(C4CC4)n3)CCO2)n1 (configuration not stated), the cytotoxicity at 70.5 h is reported as -1.45%.
Compound Cc1nc(CN2C(=O)CCC23CCN(Cc2ccccn2)CC3)cs1 has a cytotoxicity at 70.5 h of -6.85%.
OC(CNCCc1nnc2ccccn12)c1ccc2c(c1)OCO2 (configuration not stated) gave a cytotoxicity at 70.5 h of -5.97%.
With Fc1ccc(-c2nnc(CN3CCn4c(nnc4C4CC4)C3)o2)cc1 the cytotoxicity at 70.5 h was -5.47%.
CC1CCCN(CCNC(=O)c2ccn(-c3ccccc3)n2)C1 (configuration not stated) showed a cytotoxicity at 70.5 h of -5.27%.
Compound Cn1nc(CNC(=O)C2CCC2)cc1C1CC1 has a cytotoxicity at 70.5 h of -4.15%.
In the case of COc1ccc(CN2CCN(C(C)c3nc(C4CC4)no3)CC2)cc1 (configuration not stated), the cytotoxicity at 70.5 h is reported as -6.65%.
In the case of CC(C)[C@@H]1CN(Cc2cnc(C3CCCCC3)nc2)C[C@H]1C(=O)O, the cytotoxicity at 70.5 h is reported as 8.1%.
For Cn1cccc1C(=O)N1CC[C@H]2C[C@@H](c3ccncn3)O[C@@H]2C1, the cytotoxicity at 70.5 h was -9.87%.
With COC(=O)c1cc2c(=O)n(C3CCCC3)ccc2nc1C the cytotoxicity at 70.5 h was -15.4%.
For O=C(c1ccc(=O)[nH]n1)N1CCC(CN2CCOCC2)CC1, the cytotoxicity at 70.5 h was -9.25%.
Work on COCCO[C@H]1CCN(C(=O)c2ccsc2)[C@H]1Cc1ccncc1 yielded a cytotoxicity at 70.5 h of -9.1%.
Work on O=C1CC[C@]2(CC[C@@H](NCc3ccoc3)CC2)N1 yielded a cytotoxicity at 70.5 h of -2.86%.
Compound Cc1ccc(F)c(N2CCCC(Nc3nccn4cnnc34)C2=O)c1 (configuration not stated) has a cytotoxicity at 70.5 h of -11.1%.
Work on COc1c(CNCCNC(=O)c2ccc(C)cc2)c(C(C)C)nn1C yielded a cytotoxicity at 70.5 h of -8.14%.
With CC(C)OCCOCc1cccc(NC(=O)NCCn2ccnc2)c1 the cytotoxicity at 70.5 h was -8.94%.
COCc1n[nH]c2c1CN(C(=O)c1ccncc1)C2 gave a cytotoxicity at 70.5 h of -10.2%.
In the case of NC(=O)C(NC(=O)CSCc1ccc(Cl)s1)c1ccccc1 (configuration not stated), the cytotoxicity at 70.5 h is reported as -1.53%.
For CCCOCC1CCN(C(=O)c2cnc(C)nc2O)C1 (configuration not stated), the cytotoxicity at 70.5 h was -2.13%.
For Cc1ccc(C2CCCCCN2CCCS(C)(=O)=O)o1 (configuration not stated), the cytotoxicity at 70.5 h was -10.5%.
COCCCN(Cc1cnc(N2CCCC2)nc1)C1CCN(C)CC1 gave a cytotoxicity at 70.5 h of -20.3%.
For Cc1nc(N2CCCOC(Cn3cccn3)C2)c2sccc2n1 (configuration not stated), the cytotoxicity at 70.5 h was -2.92%.
CC(=O)N1CCCC(C(=O)NCCc2nc(Cc3ccccc3)no2)C1 (configuration not stated) showed a cytotoxicity at 70.5 h of -13.3%.
With CC(=O)N1C[C@H](NC(=O)c2cscn2)[C@@H]2OCCC[C@@H]21 the cytotoxicity at 70.5 h was -16.1%.
Work on N#Cc1cccc(C(=O)N2CCCC(C(=O)CCc3ccccc3)C2)c1 (configuration not stated) yielded a cytotoxicity at 70.5 h of -5.64%.
With c1cnnc(N2CCCC(NCc3ccc(-n4ccnc4)cc3)C2)c1 (configuration not stated) the cytotoxicity at 70.5 h was -10.5%.
Work on COCCn1ccnc1C1CCN(C(=O)C(O)c2ccc(F)cc2)CC1 (configuration not stated) yielded a cytotoxicity at 70.5 h of -5.34%.
CN(C)C(=O)COCC1CN(Cc2ccsc2)Cc2nccn2C1 (configuration not stated) gave a cytotoxicity at 70.5 h of -7.22%.
Compound Cn1cc(CCCNS(=O)(=O)N2CCCC2c2ccco2)cn1 (configuration not stated) has a cytotoxicity at 70.5 h of -2.37%.
For CNc1cncc(C2CCCN2C(=O)CCn2ccnc2C(C)C)n1 (configuration not stated), the cytotoxicity at 70.5 h was -3%.
Work on COc1cc(F)ccc1CC(=O)N1CC[C@H]2C(=O)NCCO[C@H]2C1 yielded a cytotoxicity at 70.5 h of 0.421%.
With CNc1nc(N2C[C@H](NC(=O)CCOC)[C@@H](C3CC3)C2)nc2c1CCC2 the cytotoxicity at 70.5 h was -15.7%.
CC(C)c1nc(C(=O)N(C)c2ccc(Br)cn2)cs1 showed a cytotoxicity at 70.5 h of -8.09%.
For CC(CCc1ccccc1)N1CCC(C(=O)Nc2cnccn2)CC1 (configuration not stated), the cytotoxicity at 70.5 h was -19.2%.
CCc1c(C)nn(CCNC(=O)c2cc(C3CC3)n[nH]2)c1C showed a cytotoxicity at 70.5 h of -2.41%.
With CCS(=O)(=O)N1CCC2(CC1)CC(COC)N(c1ncccn1)C2 (configuration not stated) the cytotoxicity at 70.5 h was 2.68%.
In the case of CCCn1cc(NC2CCSCC2)cn1, the cytotoxicity at 70.5 h is reported as 2.92%.
